According to PubChem BioAssay AID687005 (Broad Institute, 2013):
Inconclusive results are not listed. Active and inactive are the calls of the source.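 The calls were made as follows: active = Compounds that reduce signal, with fitted half-maximal dose at or under twice the top valid tested dose; inconclusive = Poor fit, or flat curve losing 30 to 70% of signal; inactive = Potency past limit, flat within 30%, or opposite direction.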

Experiment: HEK293T cell cytotoxicity, dose response, cytotoxicity control, ATP luminescence, cherry-pick samples (AID 687005)
Conditions: HEK293T viability, ATP luminescence (CellTiter-Glo), 48 h; at 23.5 µM (top of the series)
For `Cc1noc(C)c1NC(=O)N(C)C[C@H]1OCCCC[C@H](C)Oc2ccc(NC(=O)NC(C)C)cc2C(=O)N([C@@H](C)CO)C[C@@H]1C`, the activity change, negative = cytotoxicity was 68% (inactive). For `COc1cccc(S(=O)(=O)Nc2ccc3c(c2)[C@H]2C[C@H](CC(=O)NCc4cccc(F)c4)O[C@@H](CO)[C@H]2O3)c1`, the activity change, negative = cytotoxicity was -22.3% (inactive). With `C[C@H]1CN([C@@H](C)CO)C(=O)Cc2cc(NC(=O)Nc3ccccc3)ccc2O[C@@H]1CN(C)C(=O)Nc1ccc2c(c1)OCO2` the activity change, negative = cytotoxicity was -18.7% (inactive). In the case of `O=C(C[C@H]1CC[C@@H]2[C@H](COC[C@@H](O)CN2Cc2cccc(C(F)(F)F)c2)O1)NCc1ccc(Cl)cc1`, the activity change, negative = cytotoxicity is reported as 16.8% (inactive). In the case of `CC(C)NC(=O)Nc1ccc2c(c1)CC(=O)N([C@@H](C)CO)C[C@H](C)[C@H](CN(C)Cc1ccc3c(c1)OCO3)O2`, the activity change, negative = cytotoxicity is reported as 26.2% (inactive). In the case of `COc1cccc(S(=O)(=O)Nc2ccc3c(c2)[C@H]2C[C@@H](CC(=O)NC4CCCCC4)O[C@@H](CO)[C@H]2O3)c1`, the activity change, negative = cytotoxicity is reported as -20.2% (inactive). For `Cc1cc(C(=O)Nc2cccc3c2O[C@@H](CN(C)S(=O)(=O)c2ccccc2)[C@@H](C)CN([C@@H](C)CO)C3=O)n(C)n1`, the activity change, negative = cytotoxicity was -20.3% (inactive). With `CNC(=O)C[C@@H]1CC[C@@H]2[C@H](COc3ccc(NC(=O)c4cc(C)on4)cc3C(=O)N2C)O1` the activity change, negative = cytotoxicity was 26.8% (inactive). For `C[C@H](CO)N1C[C@H](C)[C@H](CN(C)Cc2cccc(C(F)(F)F)c2)OCc2cnnn2CCCC1=O`, the activity change, negative = cytotoxicity was 0.8% (inactive). With `C[C@H](CO)N1C[C@H](C)[C@H](CN(C)C(=O)Nc2ccc3c(c2)OCO3)Oc2ncc(C#CC(C)(C)O)cc2C1=O` the activity change, negative = cytotoxicity was -10.7% (inactive).

Same assay, conditions: HEK293T viability, ATP luminescence (CellTiter-Glo), 48 h; at 26 µM (top of the series)
For `CO[C@H]1CN(C)C(=O)c2ccc(NC(C)=O)cc2OC[C@H](C)N(C(=O)c2ccncc2)C[C@@H]1C`, the activity change, negative = cytotoxicity was -20% (inactive). In the case of `S=C(Nc1ccccc1)Nc1cc(Cl)ccc1Oc1ccccc1`, the activity change, negative = cytotoxicity is reported as -0.976% (inactive). For `C[C@@H]1CCCCO[C@H](CN(C)C(=O)CCCN(C)C)[C@@H](C)CN([C@H](C)CO)C(=O)c2cc(NC(=O)Cc3ccccc3)ccc2O1`, the activity change, negative = cytotoxicity was 5.89% (inactive). For `CCC(=O)N(C)C[C@@H]1Oc2cc(C#CC(C)(C)O)ccc2S(=O)(=O)N([C@@H](C)CO)C[C@H]1C`, the activity change, negative = cytotoxicity was -26.1% (inactive). With `Cc1cccc(OCC(=O)NCc2ccccc2)c1` the activity change, negative = cytotoxicity was -36.8% (inactive). For `CCC(=O)N(C)C[C@@H]1Oc2cc(C#CC(C)(C)O)ccc2S(=O)(=O)N([C@H](C)CO)C[C@H]1C`, the activity change, negative = cytotoxicity was -15.7% (inactive). For `COc1ccc(C#Cc2cnc3c(c2)C(=O)N([C@@H](C)CO)C[C@H](C)[C@@H](CN(C)C(=O)CC2CC2)O3)cc1`, the activity change, negative = cytotoxicity was -34.7% (inactive). With `C[C@@H]1CN([C@H](C)CO)C(=O)c2c(c3ccccc3n2C)-c2ccccc2CO[C@H]1CN(C)S(=O)(=O)c1cccs1` the activity change, negative = cytotoxicity was 1.01% (inactive). In the case of `O=C(C[C@@H]1CC[C@@H](NC(=O)c2cccnc2)[C@@H](CO)O1)NCCN1CCCCC1`, the activity change, negative = cytotoxicity is reported as -2.13% (inactive). For `C[C@@H]1CCCCO[C@@H](CN(C)C(=O)CCCN(C)C)[C@@H](C)CN([C@H](C)CO)C(=O)c2cc(NC(=O)Cc3ccccc3)ccc2O1`, the activity change, negative = cytotoxicity was 13.4% (inactive). With `C[C@H]1CN([C@@H](C)CO)S(=O)(=O)c2ccc(Br)cc2O[C@@H]1CN(C)C(=O)CCN1CCCCC1` the activity change, negative = cytotoxicity was 38.4% (inactive). In the case of `COc1cccc(S(=O)(=O)Nc2ccc3c(c2)OC[C@H](C)NC[C@@H](C)[C@H](OC)CN(C)C3=O)c1`, the activity change, negative = cytotoxicity is reported as -4.71% (inactive). With `O=C(NCC[C@H]1CC[C@H](NS(=O)(=O)c2ccc(F)cc2)[C@@H](CO)O1)c1ccc2c(c1)OCO2` the activity change, negative = cytotoxicity was -2.6% (inactive). For `C[C@H](CO)N1C[C@H](C)[C@H](CN(C)CC2CCCCC2)Oc2c(NS(C)(=O)=O)cccc2C1=O`, the activity change, negative = cytotoxicity was 32.2% (inactive). For `COC(=O)N(C)C[C@H]1OCc2cn(nn2)CCCC(=O)N([C@@H](C)CO)C[C@@H]1C`, the activity change, negative = cytotoxicity was -1.3% (inactive). For `CCC(=O)N1[C@H](CO)[C@H](c2ccccc2)[C@H]1CN(CC)C(=O)c1cccc(F)c1`, the activity change, negative = cytotoxicity was -0.378% (inactive). For `COc1cc2c(C(=O)N(C)c3cc(Cl)ccc3OC)cn(C)c(=O)c2cc1OC`, the activity change, negative = cytotoxicity was -3.77% (inactive). With `Cc1c(C(=O)NC(=S)Nc2ccccc2N2CCCC2)cccc1[N+](=O)[O-]` the activity change, negative = cytotoxicity was -4.96% (inactive). With `COc1ccccc1C(=O)Nc1ccc2c(c1)OC[C@H](C)N(C(C)=O)C[C@H](C)[C@H](OC)CN(C)C2=O` the activity change, negative = cytotoxicity was -41.7% (inactive). In the case of `O=C(C[C@H]1CC[C@@H](NC(=O)c2ccc3c(c2)OCO3)[C@@H](CO)O1)NCc1ccc(F)cc1`, the activity change, negative = cytotoxicity is reported as -2.35% (inactive). With `Cc1cccc(NC(=S)NN(Cc2ccccc2)c2ccccc2)c1C` the activity change, negative = cytotoxicity was 25.3% (inactive). In the case of `C[C@H]1CN([C@@H](C)CO)C(=O)c2cccc(NS(=O)(=O)c3ccc(Cl)cc3)c2O[C@@H]1CN(C)CC1CC1`, the activity change, negative = cytotoxicity is reported as 18% (inactive).
